Read-outs that look alike come from different tables or passages of the source.
Experiments:
[1] = test system: erythrocytes (sheep blood); test: Hemolytic activity against sheep erythrocytes
[2] = test system: human bronchial epithelial (16HBE) cells; test: alamarBlue cell viability assay, 16HBE; settings: 24-hour incubation, non-linear regression
[3] = Aqueous solubility of compounds reconstituted at 10 mg/mL in water; settings: 10 mg/mL in distilled deionized water
[4] = test system: human dermal fibroblast (HDF) cells; test: alamarBlue cell viability assay, HDF; settings: HDFs, 24-hour incubation, non-linear regression
[5] = pH and Ka of 10-g/L aqueous solutions (pH meter); assay type: physicochemical; settings: 10-g/L solution in distilled, deionized water
MRSA isolates = test: MIC/MBC, CLSI broth microdilution, MRSA isolates; assay type: cell-based, Staphylococcus aureus
[6] = Staphylococcus aureus, MRSA, pH 5.5, MRSA 0606, pH 5.5
[7] = Staphylococcus aureus, MRSA, pH 5.5, MRSA 0608, pH 5.5
[8] = Staphylococcus aureus, MRSA, pH 5.5, MRSA 0634, pH 5.5
[9] = Staphylococcus aureus, MRSA, pH 5.5, MRSA 0641, pH 5.5
[10] = Staphylococcus aureus, MRSA, pH 5.5, MRSA 0646, pH 5.5
[11] = Staphylococcus aureus, MRSA, pH 5.5, TCH 1516, pH 5.5
[12] = Staphylococcus aureus, MRSA, pH 6.5, MRSA 0606, pH 6.5
[13] = Staphylococcus aureus, MRSA, pH 6.5, MRSA 0608, pH 6.5
[14] = Staphylococcus aureus, MRSA, pH 6.5, MRSA 0634, pH 6.5
[15] = Staphylococcus aureus, MRSA, pH 6.5, MRSA 0641, pH 6.5
[16] = Staphylococcus aureus, MRSA, pH 6.5, MRSA 0646, pH 6.5
[17] = Staphylococcus aureus, MRSA, pH 6.5, TCH 1516, pH 6.5
[18] = Staphylococcus aureus, MRSA, pH 7.4, MRSA 0606, pH 7.4
[19] = Staphylococcus aureus, MRSA, pH 7.4, MRSA 0608, pH 7.4
[20] = Staphylococcus aureus, MRSA, pH 7.4, MRSA 0634, pH 7.4
[21] = Staphylococcus aureus, MRSA, pH 7.4, MRSA 0641, pH 7.4
[22] = Staphylococcus aureus, MRSA, pH 7.4, MRSA 0646, pH 7.4
[23] = Staphylococcus aureus, MRSA, pH 7.4, TCH 1516, pH 7.4

Structure (SMILES): [Na+].[Na+].[O-]c1c(Cl)cc(Cl)cc1-c1cc(Cl)cc(Cl)c1[O-] [C59Na]
- concentrations at which erythrocytes were not lysed ([1]; 1% sheep blood, 1-hour incubation): up to 24 µg/mL
- LD50 relative to MIC90 ([1]; higher than MIC90, stated in the hemolysis discussion, cell type not named): 10 fold
- LD50 [2]: 30.0 µg/mL
- aqueous solubility [3]: moderate aqueous solubility
- LD50 [4]: 57.5 µg/mL
- acid dissociation constant (Ka) [5]: 1.54 × 10^−16
- pH of solution ([5]; room temperature): 8.69
- MIC90 (MRSA isolates; Staphylococcus aureus, MRSA, 39 evaluated MRSA isolates, CLSI broth microdilution): 4 µg/mL
- MBC (MRSA isolates; [6]): 0.25 µg/mL
- MIC (MRSA isolates; [6]): 0.25 µg/mL
- MBC (MRSA isolates; [7]): 0.25 µg/mL
- MIC (MRSA isolates; [7]): 0.25 µg/mL
- MBC (MRSA isolates; [8]): 0.25 µg/mL
- MIC (MRSA isolates; [8]): 0.25 µg/mL
- MBC (MRSA isolates; [9]): 0.25 µg/mL
- MIC (MRSA isolates; [9]): 0.25 µg/mL
- MBC (MRSA isolates; [10]): 0.25 µg/mL
- MIC (MRSA isolates; [10]): 0.25 µg/mL
- MBC (MRSA isolates; [11]): 0.25 µg/mL
- MIC (MRSA isolates; [11]): 0.25 µg/mL
- MBC (MRSA isolates; Staphylococcus aureus, MRSA, pH 5.5, read-out: Average MBC, average of six MRSA isolates, pH 5.5): 0.25 µg/mL
- MIC (MRSA isolates; Staphylococcus aureus, MRSA, pH 5.5, read-out: Average MIC, average of six MRSA isolates, pH 5.5): 0.25 µg/mL
- MBC (MRSA isolates; [12]): 1 µg/mL
- MIC (MRSA isolates; [12]): 0.5 µg/mL
- MBC (MRSA isolates; [13]): 1 µg/mL
- MIC (MRSA isolates; [13]): 1 µg/mL
- MBC (MRSA isolates; [14]): 1 µg/mL
- MIC (MRSA isolates; [14]): 1 µg/mL
- MBC (MRSA isolates; [15]): 1 µg/mL
- MIC (MRSA isolates; [15]): 0.5 µg/mL
- MBC (MRSA isolates; [16]): 1 µg/mL
- MIC (MRSA isolates; [16]): 0.5 µg/mL
- MBC (MRSA isolates; [17]): 2 µg/mL
- MIC (MRSA isolates; [17]): 1 µg/mL
- MBC (MRSA isolates; Staphylococcus aureus, MRSA, pH 6.5, read-out: Average MBC, average of six MRSA isolates, pH 6.5): 1.2 µg/mL
- MIC (MRSA isolates; Staphylococcus aureus, MRSA, pH 6.5, read-out: Average MIC, average of six MRSA isolates, pH 6.5): 0.75 µg/mL
- MBC (MRSA isolates; [18]): 2 µg/mL
- MIC (MRSA isolates; [18]): 2 µg/mL
- MBC (MRSA isolates; [19]): 4 µg/mL
- MIC (MRSA isolates; [19]): 2 µg/mL
- MBC (MRSA isolates; [20]): 2 µg/mL
- MIC (MRSA isolates; [20]): 2 µg/mL
- MBC (MRSA isolates; [21]): 4 µg/mL
- MIC (MRSA isolates; [21]): 2 µg/mL
- MBC (MRSA isolates; [22]): 4 µg/mL
- MIC (MRSA isolates; [22]): 1 µg/mL
- MBC (MRSA isolates; [23]): 2 µg/mL
- MIC (MRSA isolates; [23]): 2 µg/mL
- MBC (MRSA isolates; Staphylococcus aureus, MRSA, pH 7.4, read-out: Average MBC, average of six MRSA isolates, pH 7.4): 3 µg/mL
- MIC (MRSA isolates; Staphylococcus aureus, MRSA, pH 7.4, read-out: Average MIC, average of six MRSA isolates, pH 7.4): 1.8 µg/mL
- MBC (MRSA isolates; Staphylococcus aureus, MRSA, read-out: MBC90, 39 evaluated MRSA isolates, CLSI broth microdilution): 12 µg/mL
- change of MIC and MBC with the reduction in pH (MRSA isolates; six MRSA isolates, pH lowered to 5.5): decreased

Source: PMC10913730, “Antimicrobial activity of a natural compound and analogs against multi-drug-resistant Gram-positive pathogens” (Microbiology Spectrum, 2024)
